Patent publication US20140005163A1 (NOVARTIS AG, priority 2010, published 2014)
pIC50: −log10 of the molar value.

Experiments:
PI3K beta = biological target: T1, PI3K beta (Homo sapiens, UniProt P42338); assay: PI3K beta kinase assay (Kinase-Glo luminescence); format: biochemical
T1 construct: for the full-length p110-b subunit are generated and fused by overlapping PCR; p85(iSH2) fusion partner (see partner chain) (N); His tag (C); made in house; host or cells: baculovirus; Tn5 (Trichoplusia ni) or TiniPro insect cells
Summary of the method: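 IC50 is derived by four-parameter logistic curve fitting of Kinase-Glo luminescence, which measures ATP left after a 60 min room-temperature reaction. Conditions are 25 nM His-tagged p85(iSH2)-p110β, 1 μM ATP and 10 μg/mL bovine liver phosphatidylinositol.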

[1] = system: PKB Ser473 phosphorylation in Rat1-myr-HA-p110 alpha cells; assay: Reverse protein array assay, PKB Ser473 phosphorylation in Rat1-myr-p110 alpha cells; format: cell-based; details: 0.5 h, pAkt Ser473, 30 minutes compound incubation, read-out: p-PKB IC50
Summary of the method: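 Compound exposure lasted 30 min in Rat1 cells bearing membrane-targeted HA-p110 isoforms, using 8 serial concentrations. Arrayed lysates, each spotted at four dilutions, gave relative fluorescence signals for phospho-Ser473 PKB.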

mTOR = biological target: T2, mTOR (Homo sapiens, UniProt P42345); assay: Biochemical assay for m-TOR by TR-FRET; details: 8 μM ATP, 400 nM GFP-4EBP1, 0.5 nM mTOR
T2 construct: purchased Invitrogen Corporation (Carlsbad/CA, USA) PV4753
Summary of the method: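 Enzyme 0.5 nM, GFP-4EBP1 400 nM, ATP 8 μM (all final); 50 mM HEPES pH 7.5, 10 mM MnCl2, 1 mM DTT; rt. Detection: Tb-α-p4EBP1 [pT46] 0.5 nM in EDTA, TR-FRET, 15 min. Reference compound on every plate, 16-point duplicate dilutions.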

T2 sequence (P42345 1360-2549 limits assumed): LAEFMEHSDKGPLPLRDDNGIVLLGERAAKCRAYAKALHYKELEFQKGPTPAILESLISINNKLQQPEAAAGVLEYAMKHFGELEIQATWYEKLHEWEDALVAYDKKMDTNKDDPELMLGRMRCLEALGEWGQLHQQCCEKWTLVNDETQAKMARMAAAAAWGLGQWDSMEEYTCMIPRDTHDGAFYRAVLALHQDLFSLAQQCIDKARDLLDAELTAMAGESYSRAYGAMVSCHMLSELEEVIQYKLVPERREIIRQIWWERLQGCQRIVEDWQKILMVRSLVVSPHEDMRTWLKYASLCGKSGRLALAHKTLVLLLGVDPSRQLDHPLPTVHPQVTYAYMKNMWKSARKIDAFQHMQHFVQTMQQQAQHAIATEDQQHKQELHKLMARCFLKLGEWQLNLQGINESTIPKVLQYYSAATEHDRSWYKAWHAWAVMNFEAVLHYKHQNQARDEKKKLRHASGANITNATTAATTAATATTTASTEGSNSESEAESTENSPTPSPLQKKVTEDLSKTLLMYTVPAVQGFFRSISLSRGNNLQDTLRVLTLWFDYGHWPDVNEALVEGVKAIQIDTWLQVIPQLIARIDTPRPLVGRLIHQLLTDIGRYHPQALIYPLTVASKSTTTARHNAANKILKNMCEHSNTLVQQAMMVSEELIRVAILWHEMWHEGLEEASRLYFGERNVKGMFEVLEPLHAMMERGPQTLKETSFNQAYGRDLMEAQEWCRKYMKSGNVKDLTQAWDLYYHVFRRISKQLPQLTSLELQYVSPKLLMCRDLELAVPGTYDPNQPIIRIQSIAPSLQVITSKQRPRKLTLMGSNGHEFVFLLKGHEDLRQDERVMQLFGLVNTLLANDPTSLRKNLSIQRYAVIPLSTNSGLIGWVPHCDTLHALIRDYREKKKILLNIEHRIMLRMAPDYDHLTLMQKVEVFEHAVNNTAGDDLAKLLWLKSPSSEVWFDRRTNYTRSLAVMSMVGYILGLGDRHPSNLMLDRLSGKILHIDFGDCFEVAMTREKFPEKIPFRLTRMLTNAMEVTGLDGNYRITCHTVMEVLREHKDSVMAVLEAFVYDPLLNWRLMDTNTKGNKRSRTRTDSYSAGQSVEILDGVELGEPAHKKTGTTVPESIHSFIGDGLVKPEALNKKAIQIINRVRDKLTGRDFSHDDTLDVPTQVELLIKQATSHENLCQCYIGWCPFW
T1 sequence (P42338 with tags, fused parts or gaps limits assumed): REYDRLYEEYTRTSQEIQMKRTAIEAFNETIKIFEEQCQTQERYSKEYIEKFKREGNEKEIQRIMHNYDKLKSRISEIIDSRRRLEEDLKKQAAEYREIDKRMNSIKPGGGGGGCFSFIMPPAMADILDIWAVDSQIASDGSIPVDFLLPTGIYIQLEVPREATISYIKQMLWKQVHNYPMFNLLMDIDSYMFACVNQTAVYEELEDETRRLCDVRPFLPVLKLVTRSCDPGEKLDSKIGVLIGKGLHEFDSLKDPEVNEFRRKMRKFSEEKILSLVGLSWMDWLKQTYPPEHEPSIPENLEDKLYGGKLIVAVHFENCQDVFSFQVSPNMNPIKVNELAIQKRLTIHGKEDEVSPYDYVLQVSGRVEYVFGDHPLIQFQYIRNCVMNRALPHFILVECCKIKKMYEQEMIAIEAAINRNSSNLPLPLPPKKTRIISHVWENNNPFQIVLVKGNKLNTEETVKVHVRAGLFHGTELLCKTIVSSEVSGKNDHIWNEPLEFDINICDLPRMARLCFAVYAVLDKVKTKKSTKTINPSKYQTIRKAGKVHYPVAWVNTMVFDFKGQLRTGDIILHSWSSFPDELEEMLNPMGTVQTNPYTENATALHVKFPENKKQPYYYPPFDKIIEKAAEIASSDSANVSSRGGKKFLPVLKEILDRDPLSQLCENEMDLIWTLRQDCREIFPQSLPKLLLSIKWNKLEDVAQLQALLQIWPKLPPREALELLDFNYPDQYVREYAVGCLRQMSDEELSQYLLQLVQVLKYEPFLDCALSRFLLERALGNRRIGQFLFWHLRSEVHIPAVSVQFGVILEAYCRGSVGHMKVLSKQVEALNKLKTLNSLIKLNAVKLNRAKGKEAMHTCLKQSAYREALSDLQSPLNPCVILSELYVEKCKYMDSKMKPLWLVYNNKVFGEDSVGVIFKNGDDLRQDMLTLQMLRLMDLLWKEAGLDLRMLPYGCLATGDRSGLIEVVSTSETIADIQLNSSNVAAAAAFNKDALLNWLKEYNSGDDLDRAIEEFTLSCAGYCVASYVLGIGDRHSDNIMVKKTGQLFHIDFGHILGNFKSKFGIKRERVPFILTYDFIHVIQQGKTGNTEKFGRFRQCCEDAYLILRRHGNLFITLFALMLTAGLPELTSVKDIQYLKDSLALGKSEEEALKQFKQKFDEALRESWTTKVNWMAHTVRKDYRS

| Compound | pIC50 (PI3K beta) | pIC50 [1] | pIC50 (mTOR) |
| --- | --- | --- | --- |
| COc1ccc(-c2ccc3ncc4c(c3c2)n(-c2ccnn2C)c(=O)n4C)cc1OC [Example 1.3, 8-(3,4-Dimethoxy-phenyl)-3-methyl-1-(2-methyl-2H-pyrazol-3-yl)-1,3-dihydro-imidazo[4,5-c]quinolin-2-one] | 6.89 | 7.34 | 6.88 |
| COc1ccc(-c2ccc3ncc4c(c3c2)n(-c2cn(C)nc2C)c(=O)n4C)cc1OC [Example 1.8, 8-(3,4-Dimethoxy-phenyl)-1-(1,3-dimethyl-1H-pyrazol-4-yl)-3-methyl-1,3-dihydro-imidazo[4,5-c]quinolin-2-one] | 7.70 | 8.05 | 8.22 |
| COc1ccc(-c2ccc3ncc4c(c3c2)n(-c2cc(C)nn2C)c(=O)n4C)cn1 [Example 2.3, 1-(2,5-Dimethyl-2H-pyrazol-3-yl)-8-(6-methoxy-pyridin-3-yl)-3-methyl-1,3-dihydro-imidazo[4,5-c]quinolin-2-one] | 6.74 | 7.92 | 7.02 |
| COc1ccc(-c2ccc3ncc4c(c3c2)n(-c2cn(C(C)C)nc2C)c(=O)n4C)cn1 [Example 2.8, 1-(1-Isopropyl-3-methyl-1H-pyrazol-4-yl)-8-(6-methoxy-pyridin-3-yl)-3-methyl-1,3-dihydro-imidazo[4,5-c]quinolin-2-one] | 6.96 | 7.34 | 7.48 |
| CCOc1ccc(-c2ccc3ncc4c(c3c2)n(-c2ccnn2CC)c(=O)n4C)cn1 [Example 3.4, 8-(6-Ethoxy-pyridin-3-yl)-1-(2-ethyl-2H-pyrazol-3-yl)-3-methyl-1,3-dihydro-imidazo[4,5-c]quinolin-2-one] | – | 6.67 | 6.79 |
| CCOc1ccc(-c2ccc3ncc4c(c3c2)n(-c2cn(CC)nc2C)c(=O)n4C)cn1 [Example 3.5, 8-(6-Ethoxy-pyridin-3-yl)-1-(1-ethyl-3-methyl-1H-pyrazol-4-yl)-3-methyl-1,3-dihydro-imidazo[4,5-c]quinolin-2-one] | 6.47 | 7.46 | 7.77 |
| CCOc1ccc(-c2ccc3ncc4c(c3c2)n(-c2cnn(C)c2C)c(=O)n4C)cn1 [Example 3.6, 1-(1,5-Dimethyl-1H-pyrazol-4-yl)-8-(6-ethoxy-pyridin-3-yl)-3-methyl-1,3-dihydro-imidazo[4,5-c]quinolin-2-one] | 6.32 | 7.35 | 6.72 |
| Cc1nn(C(C)C)cc1-n1c(=O)n(C)c2cnc3ccc(-c4ccc(N(C)C)nc4)cc3c21 [Example 4.1, 8-(6-Dimethylamino-pyridin-3-yl)-1-(1-isopropyl-3-methyl-1H-pyrazol-4-yl)-3-methyl-1,3-dihydro-imidazo[4,5-c]quinolin-2-one] | 6.12 | 7.80 | 7.52 |
| CCn1cc(-n2c(=O)n(C)c3cnc4ccc(-c5cnc(N(C)C)nc5)cc4c32)c(C)n1 [Example 6.4, 8-(2-Dimethylamino-pyrimidin-5-yl)-1-(1-ethyl-3-methyl-1H-pyrazol-4-yl)-3-methyl-1,3-dihydro-imidazo[4,5-c]quinolin-2-one] | 6.31 | 7.38 | 7.48 |
| CNC(=O)c1ccc(-c2ccc3ncc4c(c3c2)n(-c2cn(C(C)C)nc2C)c(=O)n4C)cn1 [Example 15.3, 5-[1-(1-Isopropyl-3-methyl-1H-pyrazol-4-yl)-3-methyl-2-oxo-2,3-dihydro-1H-imidazo[4,5-c]quinolin-8-yl]-pyridine-2-carboxylic acid methylamide] | 6.28 | 7.55 | 7.92 |
| Cc1nn(C)cc1-n1c(=O)n(C)c2cnc3ccc(-c4ccc(CO)nc4)cc3c21 [Example 16.2, 1-(1,3-Dimethyl-1H-pyrazol-4-yl)-8-(6-hydroxymethyl-pyridin-3-yl)-3-methyl-1,3-dihydro-imidazo[4,5-c]quinolin-2-one] | 6.77 | 6.82 | 7.64 |
| COCCOc1ccc(-c2ccc3ncc4c(c3c2)n(-c2cn(C)nc2C)c(=O)n4C)cn1 [Example 18, 1-(1,3-Dimethyl-1H-pyrazol-4-yl)-8-[6-(2-methoxy-ethoxy)-pyridin-3-yl]-3-methyl-1,3-dihydro-imidazo[4,5-c]quinolin-2-one] | 6.60 | 6.86 | 6.91 |
| CCOc1ccc(-c2ccc3ncc4c(c3c2)n(-c2cn(CC)nc2C)c(=O)n4C)cc1OCC [Example 27.1, 8-(3,4-Diethoxy-phenyl)-1-(1-ethyl-3-methyl-1H-pyrazol-4-yl)-3-methyl-1,3-dihydro-imidazo[4,5-c]quinolin-2-one] | 6.91 | 7.77 | 7.31 |
| CCOc1cc(-c2ccc3ncc4c(c3c2)n(-c2cn(CC)nc2C)c(=O)n4C)ccc1OC [Example 28.1, 8-(3-Ethoxy-4-methoxy-phenyl)-1-(1-ethyl-3-methyl-1H-pyrazol-4-yl)-3-methyl-1,3-dihydro-imidazo[4,5-c]quinolin-2-one] | 7.82 | 8.15 | 7.80 |
| CCOc1cc(-c2ccc3ncc4c(c3c2)n(-c2c(C)nn(C)c2C)c(=O)n4C)ccc1OC [Example 28.2, 8-(3-Ethoxy-4-methoxy-phenyl)-3-methyl-1-(1,3,5-trimethyl-1H-pyrazol-4-yl)-1,3-dihydro-imidazo[4,5-c]quinolin-2-one] | 6.88 | 7.12 | 6.26 |
| Cc1nn(CC(=O)N(C)C)cc1-n1c(=O)n(C)c2cnc3ccc(-c4ccccc4)cc3c21 [Example 37.3, N,N-Dimethyl-2-[3-methyl-4-(3-methyl-2-oxo-8-phenyl-2,3-dihydro-imidazo[4,5-c]quinolin-1-yl)-pyrazol-1-yl]-acetamide] | – | 7.40 | 7.72 |
| Cc1nn(CC(=O)N(C)C)c(C)c1-n1c(=O)n(C)c2cnc3ccc(-c4cncc(OC5CCC5)c4)cc3c21 [Example 60.2, 2-{4-[8-(5-Cyclobutoxy-pyridin-3-yl)-3-methyl-2-oxo-2,3-dihydro-imidazo[4,5-c]quinolin-1-yl]-3,5-dimethyl-pyrazol-1-yl}-N,N-dimethyl-acetamide] | – | 6.08 | 6.15 |
| Cc1nn(C)cc1-n1c(=O)n(C)c2cnc3ccc(-c4ccc(-n5cccn5)nc4)cc3c21 [Example 79, 1-(1,3-Dimethyl-1H-pyrazol-4-yl)-3-methyl-8-(6-pyrazol-1-yl-pyridin-3-yl)-1,3-dihydro-imidazo[4,5-c]quinolin-2-one] | – | 9.00 | > 8.52 |
| CCN(C)C(=O)Cn1cc(-n2c(=O)n(C)c3cnc4ccc(-c5ccccc5)cc4c32)c(C)n1 [Example 135, N-Ethyl-N-methyl-2-[3-methyl-4-(3-methyl-2-oxo-8-phenyl-2,3-dihydro-imidazo[4,5-c]quinolin-1-yl)-pyrazol-1-yl]-acetamide] | – | 7.59 | 6.85 |
| CCN(C)C(=O)Cn1cc(-n2c(=O)n(C)c3cnc4ccc(-c5cnc(N6CCCC6)nc5)cc4c32)c(C)n1 [Example 140.1, N-Ethyl-N-methyl-2-{3-methyl-4-[3-methyl-2-oxo-8-(2-pyrrolidin-1-yl-pyrimidin-5-yl)-2,3-dihydro-imidazo[4,5-c]quinolin-1-yl]-pyrazol-1-yl}-acetamide] | – | 7.08 | 7.44 |
